Measurements reported in patent US8202902B2, “Bivalent SMAC mimetics and the uses thereof” (The Regents of the University of Michigan, priority 2006, dated 2012).

How the values were obtained:
[1] = target: T1, human XIAP protein (residues 120-356) (Homo sapiens, UniProt P98170); assay: Fluorescence-polarization-based binding assay to XIAP protein (Smac2-F tracer); details: read-out: Binding to XIAP IC50 values
T1 construct: human XIAP protein (residues 120-356) (10 nM)
Method: The polarization values were measured after 2 hours incubation, using the Ultra plate reader. […] Curve fitting is performed using GraphPad Prism® software.

[2] = system: MDA-MB-231 human breast cancer cell line; assay: Cell growth inhibition, WST-8 assay, MDA-MB-231; assay type: cell-based; details: MDA-MB-231, read-out: IC50 values (nM) In WST-assay (MDA-MB-231)
Method: (§1) The rate of cell growth inhibition after treatment with different concentrations of the compound was determined using a WST-8 kit (2-(2-methoxy-4-nitrophenyl)-3-(4-nitrophenyl)-5-(2, 4 disulfophenyl)-2H-tetrazolium monosodium salt; Dojindo Molecular Technologies, Inc., Gaithersburg, Md.). WST-8 was added at a final concentration of 10% to each well, and then the plates were incubated at 37° C. for 2-3 hrs. The absorbance of the samples was measured at 450 nm using a ULTRA Tecan Reader (Molecular Device).

SK-OV-3 = assay: Cell growth inhibition, WST assay, SK-OV-3; assay type: cell-based; details: Homo sapiens
Method: as §1, with “Cells were seeded in 96-well flat bottom cell culture plates at a density of 3000 cells/well with a tested compound and incubated at 37° C. in an atmosphere of 95% air and 5% CO2 for 4 days. The rate” for “The rate”

[3] = target: T2, XIAP BIR3 protein of human XIAP (residues 241-356) (Homo sapiens, UniProt P98170); assay: Fluorescence polarization (FP) based binding assay to XIAP BIR3; details: read-out: Binding Affinities to XIAP BIR3 (IC50 [uM])
T2 construct: human XIAP (residues 241-356) fused to His-tag; His-tag
T2 sequence (P98170 241-356): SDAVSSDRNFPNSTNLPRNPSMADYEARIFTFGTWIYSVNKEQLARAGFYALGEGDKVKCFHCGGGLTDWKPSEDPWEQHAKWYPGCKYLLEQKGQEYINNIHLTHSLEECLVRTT
Excerpt: In order to test the binding ability of the bivalent Smac mimetics to IAP proteins, a sensitive and quantitative in vitro binding assay using the fluorescence polarization (FP) based method was developed and used to determine the binding affinity of Smac mimetics to XIAP protein (Nikolovska-Coleska et al., Anal Biochem. 332:261-73 (2004)). […] The recombinant XIAP BIR3 protein of human XIAP ([…]) fused to His-tag was stable and soluble, and was used for the FP based binding assay. The dose-dependent binding experiments were carried out with serial dilutions of the tested compounds in DMSO. […] Inc., Research Triangle Park, N.C.). […] Curve fitting was performed using […] PRISM software (GraphPad Software, Inc., San Diego, Calif.).

[4] = system: MDA-MB-231 xenograft model; assay: Inhibition of tumor growth in the MDA-MB-231 xenograft model; assay type: in vivo, mice; details: 7.5 mg/kg
Method: SM-164 was evaluated for its ability to inhibit tumor growth. […] Treatment with SM-164 at 5 mg/kg reduces the tumor volume from 147±54 mm^3 at the beginning of the treatment (day 25) to 54±32 mm^3 at the end of the treatment (day 36), a reduction of 65%. The strong antitumor activity by SM-164 is long lasting and not transient.

T1 sequence (P98170 120-356): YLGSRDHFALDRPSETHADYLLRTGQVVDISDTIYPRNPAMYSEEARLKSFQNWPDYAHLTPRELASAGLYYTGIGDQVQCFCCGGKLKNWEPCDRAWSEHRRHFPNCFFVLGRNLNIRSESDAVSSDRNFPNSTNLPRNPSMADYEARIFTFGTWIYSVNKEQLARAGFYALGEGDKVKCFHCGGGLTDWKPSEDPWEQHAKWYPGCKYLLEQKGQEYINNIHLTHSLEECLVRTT

Row | Compound | IC50 [1] | IC50 [2] | IC50 (SK-OV-3) | IC50 [3] | also measured
1 | CN[C@@H](C)C(=O)N[C@H]1CCCC[C@H]2CC[C@@H](C(=O)N[C@@H](c3ccc(F)cc3)c3cn(CCCCc4ccc(CCCCn5cc([C@@H](NC(=O)[C@@H]6CC[C@@H]7CCCC[C@H](NC(=O)[C@H](C)NC)C(=O)N76)c6ccc(F)cc6)nn5)cc4)nn3)N2C1=O [SH-182] | < 100 nM | < 10 nM | < 10 nM |  | 
2 | C[C@H](NCCO)C(=O)N[C@H]1CCCC[C@H]2CC[C@@H](C(=O)N[C@@H](c3ccc(F)cc3)c3cn(CCCCc4ccc(CCCCn5cc([C@@H](NC(=O)[C@@H]6CC[C@@H]7CCCC[C@H](NC(=O)[C@H](C)NCCO)C(=O)N76)c6ccc(F)cc6)nn5)cc4)nn3)N2C1=O [SH-184] | < 100 nM | < 10 nM | < 100 nM |  | 
3 | CN[C@@H](C)C(=O)N[C@H]1CCCC[C@H]2CC[C@@H](C(=O)N[C@@H](c3ccccc3)c3ccc(CCCNC(=O)NCCCc4ccc([C@@H](NC(=O)[C@@H]5CC[C@@H]6CCCC[C@H](NC(=O)[C@@H](C)NC)C(=O)N65)c5ccccc5)cc4)cc3)N2C1=O [SH-188] | < 100 nM | < 100 nM | < 100 nM |  | 
4 | CN[C@@H](C)C(=O)N[C@H]1CCCC[C@H]2CC[C@@H](C(=O)N[C@@H](c3ccccc3)c3ccc(CCCNC(=S)NCCCc4ccc([C@@H](NC(=O)[C@@H]5CC[C@@H]6CCCC[C@H](NC(=O)[C@@H](C)NC)C(=O)N65)c5ccccc5)cc4)cc3)N2C1=O [SH-189] | < 100 nM | < 100 nM | < 100 nM |  | 
5 | CN[C@@H](C)C(=O)N[C@H]1CCCC[C@H]2CC[C@@H](C(=O)N[C@@H](c3ccccc3)c3ccc(CCCCNC(=O)NCCCCc4ccc([C@@H](NC(=O)[C@@H]5CC[C@@H]6CCCC[C@H](NC(=O)[C@H](C)NC)C(=O)N65)c5ccccc5)cc4)cc3)N2C1=O [SH-190] | < 100 nM | < 10 nM | < 10 nM |  | 
6 | CN[C@@H](C)C(=O)N[C@H]1CCCC[C@H]2CC[C@@H](C(=O)N[C@@H](c3ccccc3)c3cn(CCCCCOCCCCn4cc([C@@H](NC(=O)[C@@H]5CC[C@@H]6CCCC[C@H](NC(=O)[C@H](C)NC)C(=O)N65)c5ccccc5)nn4)nn3)N2C1=O [SH-198] | < 100 nM | < 10 nM | < 10 nM |  | 
7 | CN[C@@H](C)C(=O)N[C@H]1CCCC[C@H]2CCC(C(=O)N[C@H](COCCCCCCCCCCCCOC[C@@H](NC(=O)[C@@H]3CC[C@@H]4CCCC[C@H](NC(=O)[C@H](C)NC)C(=O)N43)c3ccccc3)c3ccccc3)N2C1=O (stereo partly drawn) [SH-202] | < 100 nM | < 10 nM | < 10 nM |  | 
8 | CN[C@@H](C)C(=O)N[C@H]1CN(C(=O)Cc2ccc(F)cc2)CC[C@H]2CC[C@@H](C(=O)NCc3ccc(F)cc3)N2C1=O [SM-402] |  |  |  | < 0.1 µM | 
9 | CN[C@@H](C)C(=O)N[C@H]1CN(C(=O)CCc2ccc(F)cc2)CC[C@H]2CC[C@@H](C(=O)NC(c3ccc(F)cc3)c3ccc(F)cc3)N2C1=O [SM-404] |  |  |  | < 0.1 µM | 
10 | CN[C@@H](C)C(=O)N[C@H]1CN(C(=O)CC2CCCC2)CC[C@H]2CC[C@@H](C(=O)NC(c3ccccc3)c3ccccc3)N2C1=O [SM-405] |  |  |  | < 0.1 µM | 
11 | CN[C@@H](C)C(=O)N[C@H]1CN(C(=O)CC(C)C)CC[C@H]2CC[C@@H](C(=O)NC(c3ccccc3)c3ccccc3)N2C1=O [SM-406] |  |  |  | < 0.1 µM | 
12 | CN[C@@H](C)C(=O)N[C@H]1CN(C(=O)CCc2ccc(F)cc2)CC[C@H]2CC[C@@H](C(=O)NC(c3ccccc3)c3ccccc3)N2C1=O [SM-407] |  |  |  | < 0.1 µM | 
13 | CN[C@@H](C)C(=O)N[C@H]1CN(C(=O)CCc2ccccc2)CC[C@H]2CC[C@@H](C(=O)NC(c3ccccc3)c3ccccc3)N2C1=O [SM-408] |  |  |  | < 0.1 µM | 
14 | CCCC(=O)N1CC[C@H]2CC[C@@H](C(=O)NC(c3ccccc3)c3ccccc3)N2C(=O)[C@@H](NC(=O)[C@H](C)NC)C1 [SM-409] |  |  |  | < 0.1 µM | 
15 | CC(=O)O[C@@]12CO[C@@H]1C[C@H](O)[C@@]1(C)C(=O)[C@H](O)C3=C(C)[C@@H](OC(=O)[C@H](O)[C@@H](NC(=O)OC(C)(C)C)c4ccccc4)C[C@@](O)([C@@H](OC(=O)c4ccccc4)[C@H]21)C3(C)C [taxotere, reference compound] |  |  |  |  | inhibition of tumor growth compared to control [4]: effective in inhibition of tumor growth; tumor regression [4]: failed to achieve tumor regression
